Results reported in the NIST ThermoML archive (doi:10.1021/je9006597).
Numbers after ± are expanded uncertainties.

Experiments:
[1] = 101 kPa, Liquid; for speed of sound: Pulse-echo method
[2] = xn = mol fraction of the nth substance listed; details: 101 kPa, Liquid; for speed of sound: Pulse-echo method

C1CCCCC1 [cyclohexane]
[1]
Details | mass density [kg/m3] | speed of sound [m/s] | viscosity [mPa·s]
303.15 K | 768.3 ± 0.9 | 1228 ± 5 | 0.823 ± 0.027
308.15 K | 764.4 ± 0.9 | 1208 ± 5 | 0.772 ± 0.026
313.15 K | 760.5 ± 0.9 | 1188 ± 5 | 0.685 ± 0.023

C1CCCCC1 [cyclohexane] + COC(=O)c1ccccc1
[2], x2 = 0
Details | mass density [kg/m3] | speed of sound [m/s] | viscosity [mPa·s]
303.15 K | 768.3 ± 0.9 | 1228 ± 5 | 0.823 ± 0.027
308.15 K | 764.4 ± 0.9 | 1208 ± 5 | 0.772 ± 0.026
313.15 K | 760.5 ± 0.9 | 1188 ± 5 | 0.685 ± 0.023

CCCCCCC [heptane]
[1]
Details | mass density [kg/m3] | speed of sound [m/s] | viscosity [mPa·s]
303.15 K | 674.5 ± 1 | 1116 ± 5 | 0.375 ± 0.015
308.15 K | 670.3 ± 1.1 | 1092 ± 5 | 0.35 ± 0.014
313.15 K | 667.2 ± 1.1 | 1072 ± 4 | 0.325 ± 0.013

CCCCCCC [heptane] + COC(=O)c1ccccc1
[2], x2 = 0
Details | mass density [kg/m3] | speed of sound [m/s] | viscosity [mPa·s]
303.15 K | 674.5 ± 1 | 1116 ± 5 | 0.375 ± 0.015
308.15 K | 670.3 ± 1.1 | 1092 ± 5 | 0.35 ± 0.014
313.15 K | 667.2 ± 1.1 | 1072 ± 4 | 0.325 ± 0.013

CCCCCC [hexane]
[1]
Details | mass density [kg/m3] | speed of sound [m/s] | viscosity [mPa·s]
303.15 K | 649.8 ± 1.1 | 1048 ± 4 | 0.283 ± 0.012
308.15 K | 645.9 ± 1.1 | 1028 ± 4 | 0.269 ± 0.012
313.15 K | 642.2 ± 1.1 | 1008 ± 4 | 0.252 ± 0.011

CCCCCC [hexane] + COC(=O)c1ccccc1
[2], x2 = 0
Details | mass density [kg/m3] | speed of sound [m/s] | viscosity [mPa·s]
303.15 K | 649.8 ± 1.1 | 1048 ± 4 | 0.283 ± 0.012
308.15 K | 645.9 ± 1.1 | 1028 ± 4 | 0.269 ± 0.012
313.15 K | 642.2 ± 1.1 | 1008 ± 4 | 0.252 ± 0.011

COC(=O)c1ccccc1 [methyl benzoate]
[1]
Details | mass density [kg/m3] | speed of sound [m/s] | viscosity [mPa·s]
303.15 K | 1078.3 ± 0.7 | 1380 ± 6 | 1.667 ± 0.051
308.15 K | 1074.4 ± 0.7 | 1364 ± 6 | 1.514 ± 0.047
313.15 K | 1070.3 ± 0.7 | 1348 ± 6 | 1.376 ± 0.043

COC(=O)c1ccccc1 [methyl benzoate] + C1CCCCC1
[2]
Details | mass density, 303.15 K [kg/m3] | mass density, 308.15 K [kg/m3] | mass density, 313.15 K [kg/m3] | speed of sound, 303.15 K [m/s] | speed of sound, 308.15 K [m/s] | speed of sound, 313.15 K [m/s] | viscosity, 303.15 K [mPa·s] | viscosity, 308.15 K [mPa·s] | viscosity, 313.15 K [mPa·s]
x1 = 0.088 | 796.9 ± 0.8 | 793 ± 0.8 | 789.1 ± 0.8 | 1240 ± 5 | 1220 ± 5 | 1200 ± 5 | 0.802 ± 0.027 | 0.74 ± 0.025 | 0.675 ± 0.023
x1 = 0.1777 | 825.9 ± 0.8 | 822.1 ± 0.8 | 818.2 ± 0.8 | 1252 ± 5 | 1232 ± 5 | 1212 ± 5 | 0.82 ± 0.027 | 0.757 ± 0.025 | 0.704 ± 0.024
x1 = 0.2692 | 855.8 ± 0.7 | 851.9 ± 0.7 | 848.1 ± 0.7 | 1264 ± 5 | 1244 ± 5 | 1224 ± 5 | 0.854 ± 0.028 | 0.792 ± 0.026 | 0.736 ± 0.025
x1 = 0.3668 | 887.5 ± 0.7 | 883.6 ± 0.7 | 879.7 ± 0.7 | 1276 ± 5 | 1260 ± 5 | 1240 ± 5 | 0.905 ± 0.03 | 0.84 ± 0.028 | 0.781 ± 0.026
x1 = 0.4667 | 918.8 ± 0.6 | 915 ± 0.6 | 911.1 ± 0.7 | 1292 ± 5 | 1276 ± 5 | 1256 ± 5 | 0.977 ± 0.032 | 0.904 ± 0.03 | 0.835 ± 0.028
x1 = 0.5639 | 950 ± 0.6 | 946.1 ± 0.6 | 942.2 ± 0.6 | 1308 ± 5 | 1292 ± 5 | 1276 ± 5 | 1.076 ± 0.034 | 0.999 ± 0.032 | 0.932 ± 0.03
x1 = 0.6675 | 981.7 ± 0.6 | 978 ± 0.6 | 974.1 ± 0.6 | 1324 ± 5 | 1308 ± 5 | 1292 ± 5 | 1.181 ± 0.037 | 1.09 ± 0.035 | 1.004 ± 0.032
x1 = 0.7727 | 1013.3 ± 0.6 | 1009.5 ± 0.6 | 1005.5 ± 0.5 | 1340 ± 6 | 1324 ± 5 | 1312 ± 5 | 1.308 ± 0.041 | 1.197 ± 0.038 | 1.097 ± 0.035
x1 = 0.8859 | 1046.1 ± 0.6 | 1042.2 ± 0.6 | 1038.3 ± 0.6 | 1360 ± 6 | 1344 ± 6 | 1332 ± 5 | 1.478 ± 0.046 | 1.363 ± 0.042 | 1.234 ± 0.039
x1 = 1 | 1078.3 ± 0.7 | 1074.4 ± 0.7 | 1070.3 ± 0.7 | 1380 ± 6 | 1364 ± 6 | 1348 ± 6 | 1.667 ± 0.051 | 1.514 ± 0.047 | 1.376 ± 0.043

COC(=O)c1ccccc1 [methyl benzoate] + CCCCCC
[2]
Details | mass density, 303.15 K [kg/m3] | mass density, 308.15 K [kg/m3] | mass density, 313.15 K [kg/m3] | speed of sound, 303.15 K [m/s] | speed of sound, 308.15 K [m/s] | speed of sound, 313.15 K [m/s] | viscosity, 303.15 K [mPa·s] | viscosity, 308.15 K [mPa·s] | viscosity, 313.15 K [mPa·s]
x1 = 0.1027 | 692.7 ± 1 | 689 ± 1 | 685.1 ± 1 | 1072 ± 4 | 1052 ± 4 | 1036 ± 4 | 0.324 ± 0.013 | 0.301 ± 0.013 | 0.283 ± 0.012
x1 = 0.2076 | 738 ± 0.9 | 734.2 ± 0.9 | 730.3 ± 0.9 | 1100 ± 5 | 1080 ± 4 | 1064 ± 4 | 0.384 ± 0.015 | 0.358 ± 0.014 | 0.335 ± 0.013
x1 = 0.3084 | 781.4 ± 0.9 | 777.6 ± 0.9 | 773.7 ± 0.9 | 1128 ± 5 | 1108 ± 5 | 1096 ± 5 | 0.441 ± 0.016 | 0.409 ± 0.016 | 0.383 ± 0.015
x1 = 0.4087 | 825.2 ± 0.8 | 821.3 ± 0.8 | 817.3 ± 0.8 | 1160 ± 5 | 1140 ± 5 | 1128 ± 5 | 0.527 ± 0.019 | 0.487 ± 0.018 | 0.454 ± 0.017
x1 = 0.5114 | 869.6 ± 0.7 | 865.6 ± 0.7 | 861.7 ± 0.7 | 1196 ± 5 | 1180 ± 5 | 1164 ± 5 | 0.624 ± 0.022 | 0.579 ± 0.02 | 0.542 ± 0.019
x1 = 0.6115 | 913.1 ± 0.7 | 909.2 ± 0.7 | 905.3 ± 0.7 | 1232 ± 5 | 1220 ± 5 | 1200 ± 5 | 0.751 ± 0.025 | 0.688 ± 0.023 | 0.635 ± 0.022
x1 = 0.7092 | 955.5 ± 0.6 | 951.5 ± 0.6 | 947.3 ± 0.6 | 1272 ± 5 | 1256 ± 5 | 1240 ± 5 | 0.915 ± 0.03 | 0.844 ± 0.028 | 0.78 ± 0.026
x1 = 0.8069 | 997.7 ± 0.5 | 993.7 ± 0.5 | 989.7 ± 0.6 | 1312 ± 5 | 1292 ± 5 | 1280 ± 5 | 1.104 ± 0.035 | 1.016 ± 0.033 | 0.935 ± 0.03
x1 = 0.9024 | 1036.9 ± 0.6 | 1033 ± 0.6 | 1029.1 ± 0.6 | 1344 ± 6 | 1328 ± 5 | 1316 ± 5 | 1.37 ± 0.043 | 1.238 ± 0.039 | 1.135 ± 0.036
x1 = 1 | 1078.3 ± 0.7 | 1074.4 ± 0.7 | 1070.3 ± 0.7 | 1380 ± 6 | 1364 ± 6 | 1348 ± 6 | 1.667 ± 0.051 | 1.514 ± 0.047 | 1.376 ± 0.043
